Source: paper PMC9774391 (ACS Omega, 2022)

Assays:
AChE = AChE (Homo sapiens, UniProt P22303); test: biochemical; conditions: for inhibition at 1000 µM: 10^–3 M; for inhibition at 100 µM: 10^–4 M; for inhibition at 10 µM: 10^–5 M; for inhibition at 1 µM: 10^–6 M; for inhibition at 0.1 µM: 10^–7 M; for inhibition at 0.01 µM: 10^–8 M; for inhibition at 0.001 µM: 10^–9 M
Protocol: (§1) According to the modified Ellman approach outlined in our team’s earlier work, the AChE and BChE inhibitory activities of the obtained compounds were evaluated.[18]−[21]

BChE = BChE (Homo sapiens, UniProt P06276); test: biochemical; conditions: for inhibition at 1000 µM: 10^–3 M; for inhibition at 100 µM: 10^–4 M; for inhibition at 10 µM: 10^–5 M; for inhibition at 1 µM: 10^–6 M; for inhibition at 0.1 µM: 10^–7 M; for inhibition at 0.01 µM: 10^–8 M; for inhibition at 0.001 µM: 10^–9 M
Chain of BChE (P06276 29-602): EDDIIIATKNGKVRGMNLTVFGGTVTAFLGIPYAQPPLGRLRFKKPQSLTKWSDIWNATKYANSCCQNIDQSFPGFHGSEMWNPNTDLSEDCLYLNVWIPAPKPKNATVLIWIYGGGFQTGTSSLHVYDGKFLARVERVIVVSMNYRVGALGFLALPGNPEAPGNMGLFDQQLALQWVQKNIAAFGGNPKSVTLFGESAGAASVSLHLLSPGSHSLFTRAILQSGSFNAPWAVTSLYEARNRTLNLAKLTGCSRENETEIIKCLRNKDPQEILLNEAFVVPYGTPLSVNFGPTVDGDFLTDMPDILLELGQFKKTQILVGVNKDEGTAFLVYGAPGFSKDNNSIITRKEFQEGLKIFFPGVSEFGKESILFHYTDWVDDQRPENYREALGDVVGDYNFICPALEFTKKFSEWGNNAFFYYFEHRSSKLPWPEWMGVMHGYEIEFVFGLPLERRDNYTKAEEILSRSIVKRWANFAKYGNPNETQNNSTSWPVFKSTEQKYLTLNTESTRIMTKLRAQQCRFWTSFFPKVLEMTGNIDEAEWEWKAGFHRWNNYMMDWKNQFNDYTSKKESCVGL
Protocol: as §1

MAO-A = target: T1, MAO-A (Homo sapiens, UniProt P21397); test: In vitro MAO-A inhibition assay (fluorometric); type: biochemical; conditions: for inhibition at 1000 µM: 10^–3 M; for inhibition at 100 µM: 10^–4 M
T1 sequence (P21397 1-527): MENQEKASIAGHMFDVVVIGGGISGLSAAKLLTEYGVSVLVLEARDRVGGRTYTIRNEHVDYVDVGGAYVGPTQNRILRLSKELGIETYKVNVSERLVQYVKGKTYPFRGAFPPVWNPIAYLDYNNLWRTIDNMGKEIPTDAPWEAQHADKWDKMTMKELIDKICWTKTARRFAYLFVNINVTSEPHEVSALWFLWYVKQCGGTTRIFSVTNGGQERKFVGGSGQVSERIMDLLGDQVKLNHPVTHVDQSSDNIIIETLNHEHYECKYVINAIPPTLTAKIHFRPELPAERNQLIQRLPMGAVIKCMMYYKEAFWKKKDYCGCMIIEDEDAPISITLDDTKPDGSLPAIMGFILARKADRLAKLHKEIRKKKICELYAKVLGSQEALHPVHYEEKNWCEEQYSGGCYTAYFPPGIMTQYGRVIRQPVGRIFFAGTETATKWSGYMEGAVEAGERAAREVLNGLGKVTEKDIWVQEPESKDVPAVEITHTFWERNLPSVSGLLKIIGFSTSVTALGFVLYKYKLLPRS

MAO-B = target: T2, MAO-B (Homo sapiens, UniProt P27338); test: In vitro MAO-B inhibition assay (fluorometric); type: biochemical; conditions: for inhibition at 1000 µM: 10^–3 M; for inhibition at 100 µM: 10^–4 M
T2 sequence (P27338 1-520): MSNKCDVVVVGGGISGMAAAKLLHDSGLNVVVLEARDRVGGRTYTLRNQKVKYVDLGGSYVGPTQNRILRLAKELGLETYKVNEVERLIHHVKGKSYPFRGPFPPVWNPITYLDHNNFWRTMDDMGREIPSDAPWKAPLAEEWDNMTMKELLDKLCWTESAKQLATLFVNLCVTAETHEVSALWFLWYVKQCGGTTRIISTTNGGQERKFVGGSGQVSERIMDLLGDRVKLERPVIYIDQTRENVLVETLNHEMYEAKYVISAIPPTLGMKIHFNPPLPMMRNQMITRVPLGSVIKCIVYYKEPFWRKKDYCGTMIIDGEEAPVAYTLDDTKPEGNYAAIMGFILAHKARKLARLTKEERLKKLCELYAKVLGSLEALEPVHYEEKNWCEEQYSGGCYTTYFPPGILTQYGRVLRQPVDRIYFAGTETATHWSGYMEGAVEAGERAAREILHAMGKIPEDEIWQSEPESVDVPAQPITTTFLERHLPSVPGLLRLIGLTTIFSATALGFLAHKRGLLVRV

[1] = DPPH free-radical scavenging activity assay; conditions: for IC50: serial dilution 10^–3–10^–9 M, read-out: IC50 on DPPH antioxidant activity
Protocol: This approach is based on evaluating the free-radical scavenging abilities of the stable 1,1-diphenyl-2-picrylhydrazyl (DPPH) radical. To create the DPHH solution, 9.86 mg of DPPH was weighed and diluted to 25 mL with methanol. The test wells were then filled with 100 μL of the DPPH solution and 100 μL of the test solutions. Only 200 μL of methanol was used for the blank reading, while the control reading required the usage of 100 μL each of methanol and the DPPH solution. Following incubation, a spectrophotometric measurement at 517 nm was carried out.[26],[27]

Cytotoxicity test (MTT) = type: cell-based; conditions: NIH/3T3 mouse embryonic fibroblast cells (ATCC CRL-1658), NIH/3T3 mouse fibroblast healthy cell line
Protocol: The NIH/3T3 cells were incubated according to the manufacturer’s recommendations. In 96-well plates, NIH/3T3 cells were seeded at a density of 1 × 10^4 cells per well. The MTT test was conducted in line with the previously mentioned standards.[19],[22],[23],[28],[30]

Beta Amyloid 1–42 (Aβ42) = target: T3, Beta Amyloid 1–42 (Aβ42) (Homo sapiens, UniProt P05067); test: Beta Amyloid 1–42 (Aβ42) inhibitor screening assay; type: biochemical; conditions: 10^–4 M; read-out: % β-amyloid plaque inhibition
T3 construct: The Beta Amyloid 1–42 (Aβ42) Ligand Screening Assay kit; purchased BioVision, Milpitas, CA
T3 sequence (P05067 672-713 limits assumed): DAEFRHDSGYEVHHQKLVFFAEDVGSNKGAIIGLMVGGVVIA
Excerpt: The Beta Amyloid 1–42 (Aβ42) Ligand Screening Assay kit (BioVision, Milpitas, CA) technique based on the fluorometric approach served as the basis for the experimental process.[21],[28],[29]

Chain of AChE (P22303 32-614): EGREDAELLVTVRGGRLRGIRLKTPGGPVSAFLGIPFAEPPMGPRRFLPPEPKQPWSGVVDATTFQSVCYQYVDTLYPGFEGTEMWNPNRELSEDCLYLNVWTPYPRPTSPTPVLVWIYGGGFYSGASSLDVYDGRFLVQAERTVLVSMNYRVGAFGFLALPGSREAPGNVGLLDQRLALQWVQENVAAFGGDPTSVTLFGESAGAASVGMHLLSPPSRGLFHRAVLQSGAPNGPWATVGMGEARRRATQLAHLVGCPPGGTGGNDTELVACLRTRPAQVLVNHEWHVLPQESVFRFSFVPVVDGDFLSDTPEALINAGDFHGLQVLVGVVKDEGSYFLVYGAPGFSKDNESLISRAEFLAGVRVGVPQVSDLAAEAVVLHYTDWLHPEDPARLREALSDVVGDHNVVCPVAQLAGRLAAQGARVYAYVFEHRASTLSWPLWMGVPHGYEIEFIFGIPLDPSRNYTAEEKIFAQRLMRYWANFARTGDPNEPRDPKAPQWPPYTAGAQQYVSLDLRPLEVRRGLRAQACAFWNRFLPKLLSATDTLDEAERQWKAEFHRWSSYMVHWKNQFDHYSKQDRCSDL

SMILES	IC50 (AChE) [nM]	inhibition at 1000 µM (AChE) [%]	inhibition at 100 µM (AChE) [%]	inhibition at 10 µM (AChE) [%]	inhibition at 1 µM (AChE) [%]	inhibition at 0.1 µM (AChE) [%]	inhibition at 0.01 µM (AChE) [%]	inhibition at 0.001 µM (AChE) [%]	inhibition at 1000 µM (BChE) [%]	inhibition at 100 µM (BChE) [%]	inhibition at 1000 µM (MAO-A) [%]	inhibition at 100 µM (MAO-A) [%]	inhibition at 1000 µM (MAO-B) [%]	inhibition at 100 µM (MAO-B) [%]	IC50 [1] [nM]	IC50 (Cytotoxicity test (MTT)) [nM]	also measured
COc1ccc2c(c1)C/C(=C\c1ccc(NC(=O)CN3CCN(CCCO)CC3)cc1)C2=O [D19]	32.4 ± 1.2	95.2 ± 1.65	92.7 ± 1.25	89.2 ± 1.08	82.1 ± 0.988	70.7 ± 1.07	33.6 ± 0.624	20.6 ± 0.596	83.5 ± 1.37	32.5 ± 0.337	60.9 ± 1.86	25.3 ± 0.632	90.2 ± 1.46	43.2 ± 0.877	362 ± 15	10500 ± 517	% DPPH free-radical scavenging activity ([1]; concentration not stated in the sentence (Figure 6)): ≥ 90%
COc1ccc2c(c1)C/C(=C\c1ccc(NC(=O)CN3CCN(CCN(C)C)CC3)cc1)C2=O [D22]	52.7 ± 1.6	91.9 ± 1.47	86.6 ± 1.57	79 ± 1.17	70.4 ± 1.07	63.4 ± 0.988	43 ± 0.633	18.8 ± 0.521	99.5 ± 1.23	39.5 ± 0.97	76.9 ± 0.232	37.5 ± 0.411	85.3 ± 0.957	48.6 ± 0.605	–	32500 ± 523	inhibition at 100 µM (Beta Amyloid 1–42 (Aβ42)): > 50%
COc1ccc2c(c1)C(=O)/C(=C/c1ccc(NC(=O)CN3CCN(CCN(C)C)CC3)cc1)C2 [D23]	51 ± 1.4	92.5 ± 1.57	87.6 ± 1.68	82.4 ± 1.21	70.1 ± 1.06	68.9 ± 0.945	35.5 ± 0.518	20.6 ± 0.418	99 ± 1.68	41.5 ± 0.741	78.2 ± 0.969	22.9 ± 0.497	81.3 ± 1.05	43.2 ± 0.884	–	2150 ± 127	inhibition at 100 µM (Beta Amyloid 1–42 (Aβ42)): > 50%
COc1cc2c(cc1OC)C(=O)/C(=C/c1ccc(NC(=O)CN3CCN(CCCN(C)C)CC3)cc1)C2 [D27]	130 ± 4.2	91.2 ± 1.3	87.3 ± 1.12	82.1 ± 1.03	73.3 ± 0.994	41.2 ± 0.562	31.6 ± 0.389	22.5 ± 0.419	94.83 ± 0.731	35.9 ± 0.444	95.08 ± 0.687	44.4 ± 2.29	94.6 ± 1.02	43.1 ± 0.452	310 ± 13	10500 ± 467	–
COc1ccc2c(c1)C/C(=C\c1ccc(NC(=O)CN(C)CCN(C)C)cc1)C2=O [D34]	191 ± 8.7	98.3 ± 1.11	91.1 ± 1.36	76 ± 1.12	63.4 ± 0.985	41.2 ± 0.528	32.5 ± 0.588	23.5 ± 0.429	91.6 ± 1.03	–	82.1 ± 1.25	38.3 ± 0.458	78.5 ± 1.31	47.3 ± 0.676	302 ± 14	75500 ± 2180	IC50 (BChE): 132 ± 5.1 nM; inhibition at 10 µM (BChE): 76.3 ± 1.14%; inhibition at 1 µM (BChE): 71.9 ± 1.01%; inhibition at 0.1 µM (BChE): 49.7 ± 0.856%; inhibition at 0.01 µM (BChE): 31.5 ± 0.405%; inhibition at 0.001 µM (BChE): 20.5 ± 0.399%
COc1ccc2c(c1)C(=O)/C(=C/c1ccc(NC(=O)CN(C)CCN(C)C)cc1)C2 [D35]	215 ± 8.8	95.7 ± 1.2	91.7 ± 1.47	73.2 ± 1.12	61.8 ± 1.08	42.9 ± 0.628	33.6 ± 0.52	21.5 ± 0.448	90.2 ± 1.39	–	88.46 ± 0.758	21.7 ± 0.623	90.7 ± 1.25	42.5 ± 0.547	238 ± 11	53900 ± 1220	IC50 (BChE): 151 ± 4.8 nM; inhibition at 10 µM (BChE): 74.6 ± 1.13%; inhibition at 1 µM (BChE): 65.9 ± 1.01%; inhibition at 0.1 µM (BChE): 54.9 ± 0.974%; inhibition at 0.01 µM (BChE): 33.4 ± 0.814%; inhibition at 0.001 µM (BChE): 18 ± 0.411%
COc1cc2c(cc1OC)C(=O)/C(=C/c1ccc(NC(=O)CN(C)CCN(C)C)cc1)C2 [D36]	235 ± 11.3	91.9 ± 1.47	86.6 ± 1.57	78.6 ± 1.03	58.8 ± 0.893	38.2 ± 0.539	33.1 ± 0.491	20.6 ± 0.374	100 ± 1.25	41 ± 0.608	82.4 ± 0.873	43 ± 0.771	84.6 ± 1.01	45.2 ± 0.584	251 ± 10	3620 ± 129	–
O=C1O[C@H]([C@@H](O)CO)C(O)=C1O [ascorbic acid, reference compound]	–	–	–	–	–	–	–	–	–	–	–	–	–	–	165 ± 7	–	% DPPH free-radical scavenging (antioxidant) activity ([1]; 10^–3 M): 98.75% ± 1.67; % DPPH free-radical scavenging (antioxidant) activity ([1]; 10^–4 M): 95.22% ± 1.47
O=C(O)CC(O)(CC(=O)O)C(=O)O [citric acid, reference compound]	–	–	–	–	–	–	–	–	–	–	–	–	–	–	194 ± 9	–	% DPPH free-radical scavenging (antioxidant) activity ([1]; 10^–3 M): 99.48% ± 1.45; % DPPH free-radical scavenging (antioxidant) activity ([1]; 10^–4 M): 94.26% ± 1.37
